Test results taken from patent US10745731B2, “Recombinant production method” (Hoffmann-La Roche Inc., priority 2015, dated 2020).
Like-named read-outs stand apart in the source and are kept apart here.

Assays:
[1] = test system: HDAC; test: in situ HDAC activity fluorimetric assay in HEK293F cells; format: cell-based, human; details: for HDACi: N=3, FIG. 3A; for HDAC inhibition: yes/no, summary table
Procedure: HDAC activity was determined by the in situ HDAC activity fluorimetric assay kit (Biovision) according to the manufacturer's instructions. HEK293F cells were suspended in F17 medium (Life Technologies) to a cell density of 5*10^5 cells/mL. One hundred micro liter culture was pipetted per well into a black ELISA plate. The plate was centrifuged at 1000 g for 5 min. The supernatant was discarded and the cells were resuspended in a reaction mix containing F17 medium, 1% HDAC substrate and the molecule tested towards HDAC inhibitory activity. 10 μM Trichostatin A was used as a positive control and the basal HDAC activity was determined by re-suspending the cells in F17 medium with 1% HDAC substrate. Furthermore, cells were resuspended in F17 medium without HDAC substrate as a background control. The HDAC activity assay was performed in triplicates for every sample as well as every control. The 96-well plate was incubated at 36.5° C., 80% humidity and 7% CO2 for one hour. During this time, the active HDACs deacetylate the HDAC substrate what releases the quenched fluorescent signal of the substrate. After incubation the fluorescent signal was analyzed by the infinite fluorescence plate reader (TECAN). The fluorescence signal of the samples and controls was normalized by subtracting the fluorescence signal of the background control. It is assumed that the fluorescent signal arising from deacetylation of the substrate directly correlates with HDAC activity.

[2] = test system: HEK293F cells; test: Transient gene expression in HEK293F cells: IgG concentration / titer (turbidimetric test); format: cell-based, human
Procedure: (§1) Transient gene expression is a 5-7 days lasting procedure. The standard operating procedure of this expression system is applicable to shaker flasks with various volumes of cell culture ranging from 80 mL to 2 L. First, half of the cell culture volume is seeded at a viable cell density (VCD) of 8*10^5 cells/mL. After two days of cultivation, cells are split to a VCD of about 12*10^5 cells/mL. On the next day, cells are transfected with a polyethylene imine (PEI)-based transfection reagent at a VCD between 20*10^5 cells/mL and 25*10^5 cells/mL. 3 hours after transfection, the production enhancer (if any) is added. 24 h after transfection, a feeding solution and a glucose bolus is supplemented to avoid the limitation of nutrients. Depending on cell viability, which should not decrease below 50%, the supernatant is harvested five to seven days post transfection and subjected to antibody purification.
(§2) To compare transient gene expression rates always the same plasmids encoding for one distinct antibody were co-transfected.
(§3) To co-transfect two plasmids equimolarily, the ratio of the base pair number of one plasmid to the total base pair number was calculated and multiplied with the total amount of DNA (0.5 mg/L). Plasmid one has a size of 10530 bp and plasmid two has a size of 7184 bp and were solved in water to a final concentration of 1 mg/mL. For transfection of one liter cell culture, 297 μL of plasmid one and 203 μl of plasmid two were dissolved in 40 mL phosphate buffered saline (PBS) at room temperature. 1.25 mL JetPEI® solution was added and the solution was mixed well. After incubation for 10-15 min., the mixture was added to the cells. The cells were transfected in a batch containing the whole cell culture necessary for every experiment to avoid variance arising from different transfection efficiencies.
(§4) 80 mL of the transfected cell culture batch was added to a 125 ml shaker flask. For every experiment, two or three 125 mL shaker flasks were used as biological replicates and treated the same way. Three hours after transfection, cells were split into 125 mL shaker flasks and the cellular treatments with small molecules or ligands were started. Basal protein expression was determined by untreated control samples. To compare samples with the standard operating procedure, cells were also treated with VPA to a final concentration of 4 mM or 3 mM. VPA and its analogues were dissolved in double distilled water. […] Tumor necrosis factor (TNF) alpha was reconstituted with PBS supplemented with 0.1% BSA. Flagellin was dissolved in sterile double distilled water. The applied molecules were not added to the cultivation directly, but diluted in 16 mL medium pre-warmed to 36.5° C. and added to the cultivation thereafter.
(§5) 24 h after transfection a feeding solution at 36.5° C. and 3 mg/mL glucose were added to the cultivation.
Total concentration of the transiently expressed antibody was determined by a turbidimetric test. One mL cell suspension was transferred into an Eppendorf cup and centrifuged for 10 min. at 10,000 rpm (9,300 g). The supernatant was transferred into a new cup and subjected to Cobas Integra 400 plus (Roche) analysis. With comparison to internal standard the absolute concentration was calculated.

[3] = test system: HEK293F cells; format: cell-based; details: for growth inhibition and cell death: in contrast to other HDACi tested
Procedure: (§6) To determine cell viability and viable cell density (VCD) 1 mL cultivation medium (cell suspension) was transferred into a Cedex low fouling sample cup. The cup was placed into a Vicell instrument (Beckman Coulter). The instrument mixes cells with trypan blue to stain dead cells. After analysis of 50 images VCD was calculated and viability was determined by calculation of the percentage of viable cell number in relation to the total cell number.

[4] = test system: HEK293F cells; test: Transient gene expression in HEK293F cells: cell specific productivity of the expressed antibody; format: cell-based, human; details: for cell specific productivity with BAY11-7082 addition compared to the single treatment: 15 μM BAY11-7082 added 24 h after transfection; for specific productivity after 96 hours: none 2.01; for Mean cell specific productivity: untreated 1.71; for Effect on titer/SPR: summary table
Procedure: HEK293F cells were cultivated in F17 medium (Life Technologies) in shaker flasks at 36.5° C., 7.0% CO2 and 80% humidity in a shaker incubator (Kuhner, Mytron). Cells were split every three to four days and were cultivated no longer than five weeks. To avoid overgrowth and to keep them in the exponential phase of growth, viable cell densities (VCD) never exceeded 60*10^5 cells/mL.
as §1, §2, §3, §4, §5, §6
Total concentration of the transiently expressed antibody was determined by a turbidimetric test. One mL cell suspension was transferred into an Eppendorf cup and centrifuged for 10 min. at 10,000 rpm (9,300 g).

[5] = test system: HDAC; details: description from the literature; cited from earlier work

CCCC(CCC)C(=O)O [valproic acid, 2-propylpentanoic acid]
HDACi ([1]; 3 mM): 58%
HDAC inhibition [1]: yes
relative IgG concentration ([2]; 2 mM, VPA/2M2P combination study, none=100, N=3): 217%
relative IgG concentration ([2]; 2 mM, VPA/Quisinostat combination study, none=100, N=3): 217%
final titer ([2]; 3 mM, none 39.8, N=3): 68.8 mg/L
relative titer ([2]; 3 mM, none=100, N=1): 188%
relative IgG concentration ([2]; 4 mM, none=100, N=3, FIG. 6B): 173%
relative IgG concentration ([2]; 4 mM, none=100, N=3, FIG. 8B): 173%
relative IgG concentration ([2]; 4 mM, none=100, N=3, FIG. 9B): 173%
growth inhibition and cell death [3]: induce growth inhibition and cell death
cell specific productivity with BAY11-7082 addition compared to the single treatment [4]: significantly reduced
specific productivity after 96 hours ([4]; 3 mM, single treatment, N=3): 4.92 pg/cell/day
activity at 500 µM ([4]; Homo sapiens, HEK293F, 0.5 mM, sole enhancer, control=100, N=2, FIG. 1, read-out: relative cell specific productivity): 184%
activity at 1000 µM ([4]; Homo sapiens, HEK293F, 1 mM, sole enhancer, control=100, N=2, FIG. 1, read-out: relative cell specific productivity): 204%
activity at 2000 µM ([4]; Homo sapiens, HEK293F, 2 mM, VPA/2M2P combination study, none=100, N=3, read-out: relative cell specific productivity): 278%
activity at 2000 µM ([4]; Homo sapiens, HEK293F, 2 mM, VPA/Quisinostat combination study, none=100, N=3, read-out: relative cell specific productivity): 278%
activity at 2000 µM ([4]; Homo sapiens, HEK293F, 2 mM, sole enhancer, control=100, N=2, FIG. 1, read-out: relative cell specific productivity): 246%
activity at 3000 µM ([4]; Homo sapiens, HEK293F, 3 mM, single treatment, none=100, N=3, read-out: relative cell specific productivity): 237%
activity at 3000 µM ([4]; Homo sapiens, HEK293F, 3 mM, sole enhancer, control=100, N=2, FIG. 1, read-out: relative cell specific productivity): 284%
activity at 3000 µM ([4]; Homo sapiens, HEK293F, 3 mM, transfected control=100, N=3, FIG. 3B, read-out: relative cell specific productivity): 316%
activity at 4000 µM ([4]; Homo sapiens, HEK293F, 4 mM, sole enhancer, control=100, N=2, FIG. 1, read-out: relative cell specific productivity): 273%
activity at 6000 µM ([4]; Homo sapiens, HEK293F, 6 mM, sole enhancer, control=100, N=2, FIG. 1, read-out: relative cell specific productivity): 223%
activity at 4000 µM ([4]; Homo sapiens, HEK293F, employed concentration 4 mM, none=100, N=2, FIG. 2B, read-out: relative cell specific productivity): 326%
activity at 4000 µM ([4]; Homo sapiens, HEK293F, employed concentration 4 mM, none=100, N=2, FIG. 4, read-out: relative cell specific productivity): 315%
Mean cell specific productivity ([4]; conc. 3 mM): 5.4 (3 mM) pg/cell/24 h
Effect on titer/SPR ([4]; in words): strong

CCCC(CCC)C(N)=O [valpromide]
HDAC inhibitory activity [5]: very weak to no HDAC inhibitory activity
cytotoxicity ([3]; 3 mM): cytotoxic
toxicity (remark in productivity cell) ([3]; employed concentration 3 mM): toxic
TGE enhancement ([4]; 2 mM, in words): Weak TGE enhancement
activity at 2000 µM ([4]; Homo sapiens, HEK293F, employed concentration 2 mM, none=100, N=2, FIG. 4, read-out: relative cell specific productivity): 155%
activity at 3000 µM ([4]; Homo sapiens, HEK293F, employed concentration 3 mM, none=100, N=2, FIG. 4, read-out: relative cell specific productivity): 0%

Cl.Cn1cc(CNCC2CCN(c3ncc(C(=O)NO)cn3)CC2)c2ccccc21 [Quisinostat]
HDACi ([1]; 300 nM): 69%
HDAC inhibition [1]: yes
HDAC class / isoform selectivity [5]: very potent broad spectrum HDAC inhibitor with highest potency towards HDAC 1, 2, 4, and 11
relative IgG concentration ([2]; 300 nM, 2M2P/Quisinostat combination study, none=100, N=3): 169%
relative IgG concentration ([2]; 300 nM, VPA/Quisinostat combination study, none=100, N=3): 169%
growth inhibition and cell death [3]: induce growth inhibition and cell death
specific productivity after 96 hours ([4]; 300 nM, single treatment, N=3): 3.89 pg/cell/day
cell specific productivity with BAY11-7082 addition compared to the single treatment [4]: significantly reduced
activity at 0.3 µM ([4]; Homo sapiens, HEK293F, 300 nM, 2M2P/Quisinostat combination study, none=100, N=3, read-out: relative cell specific productivity): 258%
activity at 0.3 µM ([4]; Homo sapiens, HEK293F, 300 nM, VPA/Quisinostat combination study, none=100, N=3, read-out: relative cell specific productivity): 258%
activity at 0.3 µM ([4]; Homo sapiens, HEK293F, 300 nM, single treatment, none=100, N=3, read-out: relative cell specific productivity): 218%
activity at 0.3 µM ([4]; Homo sapiens, HEK293F, 300 nM, transfected control=100, N=3, FIG. 3B, read-out: relative cell specific productivity): 339%
activity at 0.3 µM ([4]; Homo sapiens, HEK293F, employed concentration 300 nM, none=100, N=2, FIG. 2B, read-out: relative cell specific productivity): 279%
Mean cell specific productivity ([4]; conc. 300 mM (so in the source)): 1.71 (300 mM) pg/cell/24 h
Effect on titer/SPR ([4]; in words): strong

B1: Flagellin: Flagellin from Salmonella typhimurium, TLR5 agonist, NFκB activator (protein, UniProt P06179 2-495, looked up)
Flagellin: AQVINTNSLSLLTQNNLNKSQSALGTAIERLSSGLRINSAKDDAAGQAIANRFTANIKGLTQASRNANDGISIAQTTEGALNEINNNLQRVRELAVQSANSTNSQSDLDSIQAEITQRLNEIDRVSGQTQFNGVKVLAQDNTLTIQVGANDGETIDIDLKQINSQTLGLDTLNVQQKYKVSDTAATVTGYADTTIALDNSTFKASATGLGGTDQKIDGDLKFDDTTGKYYAKVTVTGGTGKDGYYEVSVDKTNGEVTLAGGATSPLTGGLPATATEDVKNVQVANADLTEAKAALTAAGVTGTASVVKMSYTDNNGKTIDGGLAVKVGDDYYSATQNKDGSISINTTKYTADDGTSKTALNKLGGADGKTEVVSIGGKTYAASKAEGHNFKAQPDLAEAAATTTENPLQKIDAALAQVDTLRSDLGAVQNRFNSAITNLGNTVNNLTSARSRIEDSDYATEVSNMSRAQILQQAGTSVLAQANQVPQNVLSLLR
relative IgG concentration ([2]; 2 ng/mL, none=100, N=3, FIG. 6B): 133%
relative IgG concentration ([2]; 2 ng/mL, none=100, N=3, FIG. 8B): 128%
toxicity ([3]; compared amongst NFκB activators): mildest toxicity
relative cell specific productivity ([4]; 2 ng/mL, none=100, N=3, FIG. 6A): 135%
relative cell specific productivity ([4]; 2 ng/mL, none=100, N=3, FIG. 8A): 135%
specific productivity after 96 hours ([4]; 2 ng/mL, single treatment, N=3): 2.27 pg/cell/day
relative cell specific productivity ([4]; 2 ng/mL, single treatment, none=100, N=3): 134%
relative cell specific productivity ([4]; 10 ng/mL, none=100, N=2, FIG. 5): 154%
TGE enhancement after BAY11-7082 treatment compared to the corresponding single treatment ([4]; BAY11-7082 added 24 hours after stimulation): significantly reduced
